Source: patent US4764433A, “Agent for the protection of materials” (Bayer Aktiengesellschaft, priority 1985, dated 1988)
Converted amounts (≈) assume the structure as drawn.

Legend:
Alternaria tenuis = assay: MIC against fungi (agar, beer wort and peptone); format: cell-based; conditions: Alternaria alternata, 336 h, 2 weeks at 28° C., 60 to 70% relative humidity, read-out: MIC values when substances according to the invention act on fungi
Protocol: (§1) Compounds according to the invention are added, in concentrations of 0.1 mg/l to 5,000 mg/l, to an agar prepared from beer wort and peptone.

Aspergillus niger = assay: MIC against fungi (agar, beer wort and peptone); format: cell-based; conditions: 336 h, 2 weeks at 28° C., 60 to 70% relative humidity, read-out: MIC values when substances according to the invention act on fungi
Protocol: as §1

Aureobasidium pullulans = assay: MIC against fungi (agar, beer wort and peptone); format: cell-based; conditions: 336 h, 2 weeks at 28° C., 60 to 70% relative humidity, read-out: MIC values when substances according to the invention act on fungi
Protocol: as §1

Chaetomium globosum = assay: MIC against fungi (agar, beer wort and peptone); format: cell-based; conditions: 336 h, 2 weeks at 28° C., 60 to 70% relative humidity, read-out: MIC values when substances according to the invention act on fungi
Protocol: as §1

Coniophora puteana [1] = assay: MIC against fungi (agar, beer wort and peptone); format: cell-based; conditions: 336 h, 2 weeks at 28° C., 60 to 70% relative humidity, read-out: MIC values when substances according to the invention act on fungi
Protocol: as §1

Lentinus tigrinus = assay: MIC against fungi (agar, beer wort and peptone); format: cell-based; conditions: 336 h, 2 weeks at 28° C., 60 to 70% relative humidity, read-out: MIC values when substances according to the invention act on fungi
Protocol: as §1

Penicillium glaucum = assay: MIC against fungi (agar, beer wort and peptone); format: cell-based; conditions: 336 h, 2 weeks at 28° C., 60 to 70% relative humidity, read-out: MIC values when substances according to the invention act on fungi
Protocol: as §1

Polyporus versicolor [2] = assay: MIC against fungi (agar, beer wort and peptone); format: cell-based; conditions: Trametes versicolor, 336 h, 2 weeks at 28° C., 60 to 70% relative humidity, read-out: MIC values when substances according to the invention act on fungi
Protocol: as §1

Sclerophoma pityophila = assay: MIC against fungi (agar, beer wort and peptone); format: cell-based; conditions: Sydowia polyspora, 336 h, 2 weeks at 28° C., 60 to 70% relative humidity, read-out: MIC values when substances according to the invention act on fungi
Protocol: as §1

Coniophora puteana [3] = assay: Limiting toxic values (toxicity limits) on pinewood; conditions: 6 weeks at 21° to 23° C.; concentrations at which timber still attacked - no longer attacked
Protocol: (§2) Determination of the limiting toxic values (kg/m^3 of timber) of active compounds according to the invention for Coniophora puteana and Polyporus versicolor on pinewood and beechwood, respectively.
(§3) The limiting toxic values are determined by a method modelled on the method described by H. P. Sutter, Int. Biodeterioration Bulletin, 14 (3), 1978, pages 95 to 99.
(§4) For each test, freshly cut, thin pieces of cross-cut timber (dimensions 40×40 mm, thickness about 2 mm) are impregnated in vacuo with solutions of varying concentrations of active compounds. In each case one concentration of active compound is used to impregnate 15 timber samples simultaneously. 5 of these are in each case used at the same time for a mycological test.
(§5) The amount of active compound absorbed is determined from the retention of solvent (determined by weighing the small piece of timber before and after impregnation), the density of the timber and the concentration of the active compound in the residual impregnating solution.
(§6) Before the mycological test, the test specimens are sterilized with propylene oxide and in each case 1 test specimen is brought into contact in a Petri dish with the fully developed mycellium of the test fungus on malt extract agar. The toxicity limits are determined visually after 6 weeks at 21° to 23° C.
(§7) The toxicity limits ([…] of timber) for substances according to the invention are shown in the table below; the toxicity limits indicate the concentrations at which the timber is still attacked and at which the timber is no longer attacked.

Polyporus versicolor [4] = assay: Limiting toxic values (toxicity limits) on beechwood; conditions: 6 weeks at 21° to 23° C.; concentrations at which timber still attacked - no longer attacked
Protocol: as §2, §3, §4, §5, §6, §7

Phytophthora infestans = format: in vivo; conditions: for fungicidal properties for plant protection: phytophthora test [tomatoes], sulphamides compared with N-sulphenylated benzenesulphonamides according to the invention; for % attack at an active compound concentration of 10 ppm: tomato plants, protective
[5] = cited from earlier work
slime organisms = assay: Action against slime organisms, MIC in Allen's nutrient solution; format: cell-based; conditions: 504 h, approx. 10^6 microbes/ml, 3 weeks at room temperature, read-out: MIC in mg/l when the substances act on slime organisms
Protocol: Substances according to the invention, dissolved in a little acetone, are used in concentrations of 0.1 to 100 mg/l in a particular case in Allen's nutrient solution (Arch. Mikrobiol., 17, 34 to 53 (1952)), containing, in 4 l of sterile water, 0.2 g of ammonium chloride, 4.0 g of sodium nitrate, 1.0 g of dipotassium hydrogen phosphate, 0.2 g of calcium chloride, 2.05 g of magnesium sulphate, 0.02 g of iron chloride and 1% of caprolactam. Shortly beforehand, the nutrient solution is infested with slime organisms (approx. 10^6 microbes/ml) which have been isolated from circulating spinning water used in the production of polyamide.

| SMILES | MIC (Alternaria tenuis) | MIC (Aspergillus niger) | MIC (Aureobasidium pullulans) | MIC (Chaetomium globosum) | MIC (Coniophora puteana [1]) | MIC (Lentinus tigrinus) | MIC (Penicillium glaucum) | MIC (Polyporus versicolor [2]) | MIC (Sclerophoma pityophila) | Toxicity Limits, Coniophora puteana on pinewood (Coniophora puteana [3]) | Toxicity Limits, Polyporus versicolor on beechwood (Polyporus versicolor [4]) | fungicidal properties for plant protection (Phytophthora infestans) | solubility in the formulating agents customary for timber preservatives [5] | MIC (slime organisms) | % attack at an active compound concentration of 10 ppm (Phytophthora infestans) |
| --- | --- | --- | --- | --- | --- | --- | --- | --- | --- | --- | --- | --- | --- | --- | --- |
| O=C1c2ccccc2C(=O)N1SC(F)(Cl)Cl [A, N-fluorodichloromethylthiophthalimide, reference compound] | 10 mg/L (≈ 35.7 µM) | 200 mg/L (≈ 714 µM) | 50 mg/L (≈ 179 µM) | 100 mg/L (≈ 357 µM) | 2 mg/L (≈ 7.14 µM) | 2 mg/L (≈ 7.14 µM) | 35 mg/L (≈ 125 µM) | 50 mg/L (≈ 179 µM) | 10 mg/L (≈ 35.7 µM) |  |  |  |  |  |  |
| CN(C)S(=O)(=O)N(SC(F)(Cl)Cl)c1ccccc1 [B, N,N-dimethyl-N'-phenyl-N'-(fluorodichloromethylthio)-sulphamide, reference compound] | 10 mg/L (≈ 30 µM) | 50 mg/L (≈ 150 µM) | 7.5 mg/L (≈ 22.5 µM) | 50 mg/L (≈ 150 µM) | 7.5 mg/L (≈ 22.5 µM) | 10 mg/L (≈ 30 µM) | 50 mg/L (≈ 150 µM) | 20 mg/L (≈ 60 µM) | 15 mg/L (≈ 45 µM) | 1.61-2.25 kg/m^3 of timber | 2.23-2.81 kg/m^3 of timber | considerably better fungicidal properties for plant protection | very sparingly soluble |  |  |
| Cc1ccc(S(=O)(=O)N(C)SC(F)(Cl)Cl)cc1 [Example 1, N-fluorodichloromethylthio-N-methylamide of 4-toluenesulphonic acid] | 20 mg/L (≈ 62.8 µM) | 10 mg/L (≈ 31.4 µM) | 5 mg/L (≈ 15.7 µM) | 3.5 mg/L (≈ 11 µM) | 0.5 mg/L (≈ 1.57 µM) | 5 mg/L (≈ 15.7 µM) | 10 mg/L (≈ 31.4 µM) | 2 mg/L (≈ 6.28 µM) | 5 mg/L (≈ 15.7 µM) | 0.22-0.65 kg/m^3 of timber | 2.2-2.9 kg/m^3 of timber |  |  | ≤ 2 mg/L |  |
| CCN(SC(F)(Cl)Cl)S(=O)(=O)c1ccccc1 [Example 2] |  | 10 mg/L (≈ 31.4 µM) |  | < 2 mg/L |  |  | 10 mg/L (≈ 31.4 µM) |  |  | 0.24-0.74 kg/m^3 of timber | 1.4-2.4 kg/m^3 of timber |  |  | ≤ 2 mg/L |  |
| CCCCN(SC(F)(Cl)Cl)S(=O)(=O)c1ccccc1 [Example 3] |  |  |  |  |  |  |  |  |  | 0.25-0.76 kg/m^3 of timber | 0.63-1.29 kg/m^3 of timber |  |  |  |  |
| CCN(SC(F)(Cl)Cl)S(=O)(=O)c1ccc(C)cc1 [Example 4] | 10 mg/L (≈ 30.1 µM) | 10 mg/L (≈ 30.1 µM) | 3.5 mg/L (≈ 10.5 µM) | 7.5 mg/L (≈ 22.6 µM) | 0.3 mg/L (≈ 0.903 µM) | 0.5 mg/L (≈ 1.5 µM) | 20 mg/L (≈ 60.2 µM) | 0.5 mg/L (≈ 1.5 µM) | 3.5 mg/L (≈ 10.5 µM) | 0.65-1.3 kg/m^3 of timber | 2.8-3.7 kg/m^3 of timber |  |  |  |  |
| CCN(SC(F)(Cl)Cl)S(=O)(=O)c1ccc(Cl)cc1 [Example 6] | 20 mg/L (≈ 56.7 µM) | 10 mg/L (≈ 28.4 µM) | 10 mg/L (≈ 28.4 µM) | 35 mg/L (≈ 99.2 µM) | 0.75 mg/L (≈ 2.13 µM) | 0.5 mg/L (≈ 1.42 µM) | 10 mg/L (≈ 28.4 µM) | 1 mg/L (≈ 2.84 µM) | 7.5 mg/L (≈ 21.3 µM) |  |  |  |  |  |  |
| Cc1ccc(S(=O)(=O)N(C)SC(F)(Cl)Cl)cc1[N+](=O)[O-] [Example 8] | 5 mg/L (≈ 13.8 µM) | 20 mg/L (≈ 55.1 µM) | 5 mg/L (≈ 13.8 µM) | 15 mg/L (≈ 41.3 µM) | 0.75 mg/L (≈ 2.06 µM) | 5 mg/L (≈ 13.8 µM) | 20 mg/L (≈ 55.1 µM) | 7.5 mg/L (≈ 20.6 µM) | 5 mg/L (≈ 13.8 µM) |  |  |  |  |  |  |
| CN(SC(F)(Cl)Cl)S(=O)(=O)c1ccc([N+](=O)[O-])cc1 [Example 14] | 35 mg/L (≈ 100 µM) | 20 mg/L (≈ 57.3 µM) | 5 mg/L (≈ 14.3 µM) | 20 mg/L (≈ 57.3 µM) | 3.5 mg/L (≈ 10 µM) | 5 mg/L (≈ 14.3 µM) | 20 mg/L (≈ 57.3 µM) | 10 mg/L (≈ 28.6 µM) | 3.5 mg/L (≈ 10 µM) | 0.26-0.79 kg/m^3 of timber | 2.2-3.07 kg/m^3 of timber |  |  |  |  |
| Cc1ccc(S(=O)(=O)N(C)SC(F)(Cl)Cl)cc1C [Example 17] |  | 10 mg/L (≈ 30.1 µM) |  | 3.5 mg/L (≈ 10.5 µM) |  |  | 10 mg/L (≈ 30.1 µM) |  |  |  |  |  |  |  |  |
| Cc1ccc(C)c(S(=O)(=O)N(C)SC(F)(Cl)Cl)c1 [Example 19] | 100 mg/L (≈ 301 µM) | 10 mg/L (≈ 30.1 µM) | 35 mg/L (≈ 105 µM) | < 2 mg/L | 7.5 mg/L (≈ 22.6 µM) | 100 mg/L (≈ 301 µM) | 20 mg/L (≈ 60.2 µM) | 100 mg/L (≈ 301 µM) | 10 mg/L (≈ 30.1 µM) | 0.24-0.72 kg/m^3 of timber | 1.07-1.76 kg/m^3 of timber |  |  |  |  |
| COCCCN(SC(F)(Cl)Cl)S(=O)(=O)c1ccc(C)cc1 [Example 22] |  | 20 mg/L (≈ 53.1 µM) |  | 5 mg/L (≈ 13.3 µM) |  |  | 35 mg/L (≈ 93 µM) |  |  |  |  |  |  |  |  |
| CN(SC(F)(Cl)Cl)S(=O)(=O)c1ccccc1 [Example 24] |  | 5 mg/L (≈ 16.4 µM) |  | 3.5 mg/L (≈ 11.5 µM) |  |  | 5 mg/L (≈ 16.4 µM) |  |  |  |  |  |  |  |  |
| CN(SC(F)(Cl)Cl)S(=O)(=O)c1ccc(Cl)c(Cl)c1 [Example 25] |  | 20 mg/L (≈ 53.6 µM) |  | 7.5 mg/L (≈ 20.1 µM) |  |  | 10 mg/L (≈ 26.8 µM) |  |  |  |  |  |  |  |  |
| CN(SC(F)(Cl)Cl)S(=O)(=O)c1ccc(Cl)c([N+](=O)[O-])c1 [Example 26] |  | 50 mg/L (≈ 130 µM) |  | 20 mg/L (≈ 52.1 µM) |  |  | 20 mg/L (≈ 52.1 µM) |  |  |  |  |  |  |  |  |
| CN(SC(F)(Cl)Cl)S(=O)(=O)c1cccc([N+](=O)[O-])c1 [Example 27] |  | 20 mg/L (≈ 57.3 µM) |  | 20 mg/L (≈ 57.3 µM) |  |  | 20 mg/L (≈ 57.3 µM) |  |  |  |  |  |  |  |  |
| CN(SC(F)(Cl)Cl)S(=O)(=O)c1cc(Cl)ccc1Cl [Example 28] |  | 20 mg/L (≈ 53.6 µM) |  | 35 mg/L (≈ 93.8 µM) |  |  | 15 mg/L (≈ 40.2 µM) |  |  |  |  |  |  |  |  |
| Cc1ccc(N(SC(F)(Cl)Cl)S(=O)(=O)N(C)C)cc1 [N,N-dimethyl-N'-(4-tolyl)-N'-dichlorofluoromethylthio-sulphamide] |  |  |  |  |  |  |  |  |  |  |  | considerably better fungicidal properties for plant protection |  |  |  |
| CN(C)S(=O)(=O)N(SC(F)(Cl)Cl)c1ccccc1 [drawing 12] |  |  |  |  |  |  |  |  |  |  |  |  |  |  | 19% |
| Cc1ccc(N(SC(F)(Cl)Cl)S(=O)(=O)N(C)C)cc1 [drawing 13] |  |  |  |  |  |  |  |  |  |  |  |  |  |  | 14% |
